Measured values: US9169224B2, “Piperazinyl and piperidinyl ureas as modulators of fatty acid amide hydrolase” (Janssen Pharmaceutica NV, priority 2004, dated 2015)
Structures can show the parent of a compound that is named as a salt.

Each compound was assayed against FAAH (Homo sapiens (Human), UniProt O00519) (assay: Assay Method 1: FAAH assay, T84 cell homogenate, 3H-anandamide hydrolysis). Settings: 3H-AEA tracer 200 nM, 1 h at rt.
Assay type: biochemical
Experimental: T84 frozen pellets (contents of 1-4×15 cm culture dishes) were homogenized in 300 mL of FAAH assay buffer (125 mM Tris, 1 mM EDTA, 0.2% glycerol, 0.02% Triton X-100, 0.4 mM Hepes, pH 9). The assay mixture was prepared from 50 μL of the cell homogenate, 10 μL of the test compound, and 40 μL of anandamide [1-3H-ethanolamine] (^3H-AEA; Perkin-Elmer, 10.3 Ci/mmol), which was added last, for a final tracer concentration of 200 nM. The reaction mixture was incubated at rt for 1 hour (h). During the incubation, 96-well Multiscreen filter plates (catalog number MAFCNOB50; Millipore, Bedford, Mass., USA) were loaded with 25 μL of activated charcoal (Multiscreen column loader, catalog number MACL09625, Millipore) and washed once with 100 μL of MeOH. Also during the incubation, 96-well DYNEX MicroLite plates (catalog number NL510410) were loaded with 100 μL of MicroScint40 (catalog number 6013641, Packard Bioscience, Meriden, Conn., USA). After the 1 h incubation, 60 μL of the reaction mixture were transferred to the charcoal plates, which were then assembled on top of the DYNEX plates using Centrifuge Alignment Frames (catalog number MACF09604, Millipore). The unbound, labeled ethanolamine was centrifuged through to the bottom plate (5 min at 2000 rpm), which was preloaded with the scintillant, as described above. The plates were sealed and left at rt for 1 h before counting on a Hewlett Packard TopCount.

Sequence of FAAH (O00519 whole entry): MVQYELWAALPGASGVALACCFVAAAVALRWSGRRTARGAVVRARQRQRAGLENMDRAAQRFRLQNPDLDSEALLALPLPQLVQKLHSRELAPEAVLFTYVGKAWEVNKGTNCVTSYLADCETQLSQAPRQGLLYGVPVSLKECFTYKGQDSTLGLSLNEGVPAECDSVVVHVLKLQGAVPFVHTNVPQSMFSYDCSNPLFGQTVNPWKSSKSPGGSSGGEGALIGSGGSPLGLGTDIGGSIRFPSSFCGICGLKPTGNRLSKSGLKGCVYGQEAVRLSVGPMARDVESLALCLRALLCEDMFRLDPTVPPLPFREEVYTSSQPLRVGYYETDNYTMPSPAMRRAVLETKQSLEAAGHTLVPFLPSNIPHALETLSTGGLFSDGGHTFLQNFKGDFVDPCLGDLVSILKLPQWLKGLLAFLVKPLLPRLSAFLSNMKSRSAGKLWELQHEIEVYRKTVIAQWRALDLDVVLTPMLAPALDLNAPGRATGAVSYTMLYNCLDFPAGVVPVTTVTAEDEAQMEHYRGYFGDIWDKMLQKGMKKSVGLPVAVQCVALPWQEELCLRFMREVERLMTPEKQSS

Row | Structure (SMILES) | IC50 [nM]
1 | O=C(Nc1ccccc1)N1CCN(Cc2cccc(Oc3cc4ccccc4c4ccccc34)c2)CC1 [Example 132, 4-[3-(Phenanthren-9-yloxy)-benzyl]-piperazine-1-carboxylic acid phenylamide] | 3000
2 | O=C(Nc1ccccc1)N1CCN(Cc2ccccc2)CC1 [Example J, 4-Benzyl-piperazine-1-carboxylic acid phenylamide, reference compound] | 2000
3 | O=C(Nc1ccc(F)cc1)N1CCN(Cc2ccc3ccccc3n2)CC1 [Example 58, 4-Quinolin-2-ylmethyl-piperazine-1-carboxylic acid (4-fluoro-phenyl)-amide] | 100
4 | O=C(Nc1ccccc1)N1CCN(Cc2cc3ccccc3c3ccccc23)CC1 [Example 67, 4-Phenanthren-9-ylmethyl-piperazine-1-carboxylic acid phenylamide] | 8000
5 | COc1cccc(NC(=O)N2CCN(Cc3ccc(Br)c(Br)c3)CC2)c1 [Example 87, 4-(3,4-Dibromo-benzyl)-piperazine-1-carboxylic acid (3-methoxy-phenyl)-amide] | 48
6 | O=C(Nc1ccccc1)N1CCN(Cc2ccc3cc[nH]c3c2)CC1 [Example 73, 4-(1H-Indol-6-ylmethyl)-piperazine-1-carboxylic acid phenylamide] | 29
7 | Cc1cccc(NC(=O)N2CCC(Cc3ccccc3)CC2)c1 [Example 114, 4-Benzyl-piperidine-1-carboxylic acid m-tolylamide] | 2300
8 | O=C(Nc1ccccc1)N1CCN(Cc2ccc(-c3ccccc3)cc2)CC1 [Example 49, 4-Biphenyl-4-ylmethyl-piperazine-1-carboxylic acid phenylamide] | 4500
9 | COc1ccc(NC(=O)N2CCN(Cc3ccc(Br)c(Br)c3)CC2)cc1 [Example 90, 4-(3,4-Dibromo-benzyl)-piperazine-1-carboxylic acid (4-methoxy-phenyl)-amide] | 75
10 | O=C(Nc1ccccc1)N1CCN(Cc2ccc(I)cc2)CC1 [Example 24, 4-(4-Iodo-benzyl)-piperazine-1-carboxylic acid phenylamide] | 52
11 | O=C(Nc1ccccc1)N1CCN(Cc2cccc(Oc3cccc(C(F)(F)F)c3)c2)CC1 [Example 64, 4-[3-(3-Trifluoromethyl-phenoxy)-benzyl]-piperazine-1-carboxylic acid phenylamide] | 220
12 | CCOc1cccc(CN2CCN(C(=O)Nc3ccccc3)CC2)c1 [Example 122, 4-(3-Ethoxy-benzyl)-piperazine-1-carboxylic acid phenylamide] | 220
13 | O=C(Nc1ccccc1)N1CCN(Cc2ccc3c(c2)CCO3)CC1 [Example 38, 4-(2,3-Dihydro-benzofuran-5-ylmethyl)-piperazine-1-carboxylic acid phenylamide] | 620
14 | O=C(Nc1ccccc1)N1CCN(Cc2ccnc3ccccc23)CC1 [Example 50, 4-Quinolin-4-ylmethyl-piperazine-1-carboxylic acid phenylamide] | 3000
15 | CCCOc1ccc(CN2CCN(C(=O)Nc3ccccc3)CC2)cc1 [Example 123, 4-(4-Propoxy-benzyl)-piperazine-1-carboxylic acid phenylamide] | 1500
16 | O=C(Nc1ccccc1)N1CCN(Cc2ccc3c(c2)Cc2ccccc2-3)CC1 [Example 79, 4-(9H-Fluoren-2-ylmethyl)-piperazine-1-carboxylic acid phenylamide] | 8000

The remaining lines, values ahead:

Row | IC50 [nM] | Structure (SMILES)
17 | 1700 | O=C(Nc1ccccc1)N1CCN(CCCc2ccccc2)CC1 [Example I, 4-(3-Phenyl-propyl)-piperazine-1-carboxylic acid phenylamide, reference compound]
18 | 590 | C=Cc1cccc(CN2CCN(C(=O)Nc3ccccc3)CC2)c1 [Example 37, 4-(3-Vinyl-benzyl)-piperazine-1-carboxylic acid phenylamide]
19 | 480 | Cc1cc(CN2CCN(C(=O)Nc3ccccc3)CC2)c(C)n1-c1cccc(C(F)(F)F)c1 [Example 83, 4-[2,5-Dimethyl-1-(3-trifluoromethyl-phenyl)-1H-pyrrol-3-ylmethyl]-piperazine-1-carboxylic acid phenylamide]
20 | 280 | CCc1ccc(CN2CCN(C(=O)Nc3ccccc3)CC2)cc1 [Example 33, 4-(4-Ethyl-benzyl)-piperazine-1-carboxylic acid phenylamide]
21 | 180 | O=C(Nc1ccccc1)N1CCN(Cc2ccc3c(c2)CCC3)CC1 [Example 30, 4-Indan-5-ylmethyl-piperazine-1-carboxylic acid phenylamide]
22 | 170 | CCCOc1cccc(CN2CCN(C(=O)Nc3ccccc3)CC2)c1 [Example 120, 4-(3-Propoxy-benzyl)-piperazine-1-carboxylic acid phenylamide]
23 | 160 | O=C(Nc1ccccc1)N1CCN(Cc2cccc(Oc3cccc(Cl)c3)c2)CC1 [Example 130, 4-[3-(3-Chloro-phenoxy)-benzyl]-piperazine-1-carboxylic acid phenylamide]
24 | 120 | O=C(Nc1cccc(F)c1)N1CCN(Cc2cnc3ccccc3c2)CC1 [Example 97, 4-Quinolin-3-ylmethyl-piperazine-1-carboxylic acid (3-fluoro-phenyl)-amide]
25 | 120 | O=C(Nc1ccccc1)N1CCN(Cc2ccc(F)c(Br)c2)CC1 [Example 29, 4-(3-Bromo-4-fluoro-benzyl)-piperazine-1-carboxylic acid phenylamide]
26 | 100 | Cc1cccc(NC(=O)N2CCN(Cc3ccc(Br)c(Br)c3)CC2)c1 [Example 88, 4-(3,4-Dibromo-benzyl)-piperazine-1-carboxylic acid m-tolylamide]
27 | 80 | O=C(Nc1ccccc1)N1CCN(Cc2cccc(Oc3ccccc3)c2)CC1 [Example 28, 4-(3-Phenoxy-benzyl)-piperazine-1-carboxylic acid phenylamide]
28 | 65 | CS(=O)(=O)c1ccc(Oc2cccc(CN3CCN(C(=O)Nc4ccccc4)CC3)c2)cc1 [Example 134, 4-[3-(4-Methanesulfonyl-phenoxy)-benzyl]-piperazine-1-carboxylic acid phenylamide]
29 | 57 | O=C(Nc1ccccc1)N1CCN(Cc2cccc(OCc3ccccc3)c2)CC1 [Example 25, 4-(3-Benzyloxy-benzyl)-piperazine-1-carboxylic acid phenylamide]
30 | 32 | O=C(Nc1ccccc1)N1CCN(Cc2ccc(OCc3ccccc3)cc2)CC1 [Example 77, 4-(4-Benzyloxy-benzyl)-piperazine-1-carboxylic acid phenylamide]
31 | 19 | O=C(Nc1ccccc1)N1CCN(Cc2cc3ccccc3s2)CC1 [Example 20, 4-Benzo[b]thiophen-2-ylmethyl-piperazine-1-carboxylic acid phenylamide]
32 | 18 | Cc1ccc(Oc2cccc(CN3CCN(C(=O)Nc4ccccc4)CC3)c2)cc1 [Example 62, 4-(3-p-Tolyloxy-benzyl)-piperazine-1-carboxylic acid phenylamide]
33 | 9 | O=C(Nc1ccccc1)N1CCN(Cc2cccc(Oc3ccc(Cl)cc3)c2)CC1 [Example 60, 4-[3-(4-Chloro-phenoxy)-benzyl]-piperazine-1-carboxylic acid phenylamide]

Same assay, conditions: 3H-AEA tracer 200 nM, 1 h at rt, hydrochloride

Row | IC50 [nM] | Structure (SMILES)
34 | 210 | COc1cc(Br)cc(CN2CCN(C(=O)Nc3ccccc3)CC2)c1O [Example 161, 4-(5-Bromo-2-hydroxy-3-methoxy-benzyl)-piperazine-1-carboxylic acid phenylamide hydrochloride]
